In article PMC4658637 (2015):
Values belong to the compound of their own block, whether it stands above or below them.

Key:
[1] = system: SPR-c-kit2 (DNA, G4) GGGCGGGCGCGAGGGAGGGG; assay: SPR; conditions: 100 mM K+ (KCl); 50 mM Tris-HCl, pH 7.2, 25 °C; Langmuir kinetic fit
[2] = system: KRAS (DNA, G4) AGGGCGGTGTGGGAAGAGGGAAGAGGGGGAGG; assay: fluorescence titration; conditions: 100 mM K+ (KCl); 10 mM Tris-HCl, pH 7.2; strong light-up of 15 at 525 nm
[3] = system: Pu22 (DNA, G4) TGAGGGTGGGTAGGGTGGGTAA; assay: fluorescence titration; conditions: 100 mM K+ (KCl); 10 mM Tris-HCl, pH 7.2; strong light-up of 15 at 525 nm
[4] = system: bcl-2 (DNA, G4) GGGCGGGCGCGGGAGGAAGGGGGCGGG; assay: fluorescence titration; conditions: 100 mM K+ (KCl); 10 mM Tris-HCl, pH 7.2; strong light-up of 15 at 525 nm
[5] = system: c-kit2 (DNA, G4) GGGCGGGCGCGAGGGAGGGG; assay: fluorescence titration; conditions: 100 mM K+ (KCl); 10 mM Tris-HCl, pH 7.2; strong light-up of 15 at 525 nm
[6] = system: HT-L2H (DNA, G4) TTGGGTTAGGGTTAGGGTTAGGGA; assay: fluorescence titration; conditions: 100 mM K+ (KCl); 10 mM Tris-HCl, pH 7.2; much weaker light-up, up to 5 μM DNA
[7] = system: htg22 (DNA, G4) AGGGTTAGGGTTAGGGTTAGGG; assay: fluorescence titration; conditions: 100 mM K+ (KCl); 10 mM Tris-HCl, pH 7.2; much weaker light-up, up to 5 μM DNA
[8] = system: HRAS (DNA, G4) TCGGGTTGCGGGCGCAGGGCACGGGCG; assay: fluorescence titration; conditions: 100 mM K+ (KCl); 10 mM Tris-HCl, pH 7.2; much weaker light-up, up to 5 μM DNA
[9] = system: TBA (DNA, G4) GGTTGGTGTGGTTGG; assay: fluorescence titration; conditions: 100 mM K+ (KCl); 10 mM Tris-HCl, pH 7.2; much weaker light-up, up to 5 μM DNA
[10] = system: c-kit3 (DNA, G4) GGCGAGGAGGGGCGTGGCCGGC; assay: fluorescence titration; conditions: 100 mM K+ (KCl); 10 mM Tris-HCl, pH 7.2; much weaker light-up, up to 5 μM DNA
[11] = system: c-kit2-Ap4 (DNA, G4, 2-aminopurine at 4 (replaces C)) GGGCGGGCGCGAGGGAGGGG; assay: 2-aminopurine fluorescence titration; conditions: 100 mM K+ (KCl); 10 mM Tris-HCl, pH 7.2; 1 μM DNA, 0-10 μM compound
[12] = system: c-kit2-Ap12 (DNA, G4, 2-aminopurine at 12) GGGCGGGCGCGAGGGAGGGG; assay: 2-aminopurine fluorescence titration; conditions: 100 mM K+ (KCl); 10 mM Tris-HCl, pH 7.2; 1 μM DNA, 0-10 μM compound
[13] = system: c-kit2-Ap16 (DNA, G4, 2-aminopurine at 16) GGGCGGGCGCGAGGGAGGGG; assay: 2-aminopurine fluorescence titration; conditions: 100 mM K+ (KCl); 10 mM Tris-HCl, pH 7.2; 1 μM DNA, 0-10 μM compound
[14] = system: HRAS-Ap7 (DNA, G4, 2-aminopurine at 7 (replaces T)) TCGGGTTGCGGGCGCAGGGCACGGGCG; assay: 2-aminopurine fluorescence titration; conditions: 100 mM K+ (KCl); 10 mM Tris-HCl, pH 7.2; 1 μM DNA, 0-10 μM compound
[15] = system: HRAS-Ap16 (DNA, G4, 2-aminopurine at 16) TCGGGTTGCGGGCGCAGGGCACGGGCG; assay: 2-aminopurine fluorescence titration; conditions: 100 mM K+ (KCl); 10 mM Tris-HCl, pH 7.2; 1 μM DNA, 0-10 μM compound
[16] = system: HRAS-Ap21 (DNA, G4, 2-aminopurine at 21) TCGGGTTGCGGGCGCAGGGCACGGGCG; assay: 2-aminopurine fluorescence titration; conditions: 100 mM K+ (KCl); 10 mM Tris-HCl, pH 7.2; 1 μM DNA, 0-10 μM compound

KD [1]: 13.9 µM
SMILES: C#CCOc1ccc(-c2[nH]c(-c3cc4ccc(N(CC)CC)cc4oc3=O)nc2-c2ccc(OCCCN(CC)CC)cc2)cc1

KD [1]: 6.1 µM
binding [2]: yes
binding [3]: yes
binding [4]: yes
binding [5]: yes
binding [6]: weak
binding [7]: weak
binding [8]: weak
binding [9]: weak
binding [10]: weak
binding [11]: yes
binding [12]: yes
binding [13]: yes
binding [14]: weak
binding [15]: weak
binding [16]: weak
SMILES: CCN(CC)CCCOc1ccc(-c2nc(-c3cc4ccc(N(CC)CC)cc4oc3=O)[nH]c2-c2ccc(OCc3cn(CCC(=O)O)nn3)cc2)cc1

KD [1]: 4.3 µM
SMILES: CCN(CC)CCCOc1ccc(-c2nc(-c3cc4ccc(N(CC)CC)cc4oc3=O)[nH]c2-c2ccc(OCc3cn(CCCN(C)C)nn3)cc2)cc1

KD [1]: 2.0 µM
binding [11]: yes
binding [13]: yes
binding [14]: yes
binding [16]: yes
SMILES: CCN(CC)CCCOc1ccc(-c2nc(-c3cc4ccc(N(CC)CC)cc4oc3=O)[nH]c2-c2ccc(OCc3cn(CCCN4CCN(C)CC4)nn3)cc2)cc1

KD [1]: 3.1 µM
SMILES: CCN(CC)CCCOc1ccc(-c2nc(-c3cc4ccc(N(CC)CC)cc4oc3=O)[nH]c2-c2ccc(OCc3cn(CCCO)nn3)cc2)cc1

KD [1]: 2.7 µM
SMILES: CCN(CC)CCCOc1ccc(-c2nc(-c3cc4ccc(N(CC)CC)cc4oc3=O)[nH]c2-c2ccc(OCc3cn(CCN(C)C)nn3)cc2)cc1

KD [1]: 1.8 µM
SMILES: CCN(CC)CCCOc1ccc(-c2nc(-c3cc4ccc(N(CC)CC)cc4oc3=O)[nH]c2-c2ccc(OCc3cn(CCN4CCCCC4)nn3)cc2)cc1

KD [1]: 4.8 µM
SMILES: CCN(CC)CCCOc1ccc(-c2nc(-c3cc4ccc(N(CC)CC)cc4oc3=O)[nH]c2-c2ccc(OCc3cn(CCN4CCOCC4)nn3)cc2)cc1
